According to patent US11471425B2, “Pharmaceutical composition containing broussochalcone a as active ingredient for treatment of inflammatory bowel disease” (BIOPHARMARESEARCHLAB CO., LTD., priority 2017, dated 2022):
Like-named read-outs stand apart in the source and are kept apart here.

Key:
[1] = Food intake by ulcerative colitis-induced mice; settings: 3% (w/v) DSS from day 3; oral 100 μl/10 g bw; measured daily, day 0 to day 11
Text: (§2) In addition, changes in body weight and food intake were observed by measuring the body weight and food intake at daily intervals from the start (day 0) to the end (day 11) of the animal experiment.
(§3) 7-Week-old C57BL/6J mice were purchased from Central Lab. Animal Inc. (Seoul, Korea) and acclimatized for 7 days to an experimental environment, which was maintained at constant humidity and constant temperature under a 12-hour light/dark cycle, while allowing them to access solid feed and water ad libitum. After 7 days of acclimatization period, the mice were divided into normal group, control group, positive control group (sulfasalazine), and BA experimental group (broussochalcone A) (Table 1).
(§4) Sulfasalazine (Sigma, USA) was quantified at 150 mg and dissolved in 1 ml of DMSO to prepare an SUL solution. 9 ml of Koliphor EL was diluted in PBS to prepare a 10% (v/v) Koliphor solution. The SUL solution was mixed with 9 ml of 10% (v/v) Koliphor solution to prepare an SUL specimen. Then, the SUL specimen was quantified and orally administered at 100 μl/10 g·body weight (bw) to the positive control group. […]
(§5) Broussochalcone A (Natural Products Bank, Korea) was quantified at 20 mg and dissolved in 1 ml of DMSO to prepare a BA solution. […] Then, the BA specimen was quantified and orally administered at 100 μl/10 g·body weight (bw) to the BA experimental group. […]

[2] = system: myeloperoxidase (MPO); experiment: Myeloperoxidase (MPO) activity in colon tissues of ulcerative colitis-induced mice; format: in vivo, C57BL/6J mice; settings: colon tissue, day 11; absorbance at 412 nm, average of three measurements
Experimental: (§1) On day 11, the mice were sacrificed by intraperitoneal injection of Alfaxan (Jurox Pty Limited, Australia), and then the colon, which ranges from the cecum site to the site immediately before the anus, was extracted. After all colonic contents in the colon tissues were removed, some specimens were fixed in 4% (v/v) paraformaldehyde fixative for use as pathological specimens, and the other specimens were stored frozen at −80° C. for molecular biological analysis.
For the mice for which ulcerative colitis had been induced by DSS, activity of MPO, an inflammatory indicator, was checked.
The colon tissues stored frozen in Example 3 were analyzed using the […] Colorimetric Activity Assay Kit (Sigma, USA), in which absorbance at a wavelength of 412 nm was measured three times to calculate an average value.

[3] = system: ulcerative colitis-induced mice; experiment: Disease activity index (DAI) in DSS-induced ulcerative colitis mice; format: in vivo, C57BL/6J mice; settings: 3% (w/v) DSS in drinking water from day 3; specimen orally at 100 μl/10 g bw; compared with control group
Experimental: The normal group received a mixture of 9 ml of Koliphor EL (Sigma, USA) and 1 ml of DMSO at the same dose as the BA experimental group. The normal group was allowed to access water ad libitum during the experimental period.
The control group received a mixture of 9 ml of Koliphor EL (Sigma, USA) and 1 ml of DMSO at the same dose as the BA experimental group.
During the experimental period, the mice were caused to defecate once a day. Feces appearance was observed and fecal occult blood was observed using the Beckman Coulter Hemoccult Single Slides (Beckman Coulter, Inc., USA). The observation results were expressed in scores according to the criteria in Table 2.
Disease activity index (DAI)=(Fecal consistency+fecal color)/2

[4] = system: ulcerative colitis-induced mice; experiment: Colon length in DSS-induced ulcerative colitis mice; format: in vivo, C57BL/6J mice; settings: 3% (w/v) DSS from day 3; oral 100 μl/10 g bw; colon extracted on day 11
Experimental: as §1

[5] = Changes in body weight of ulcerative colitis-induced mice; format: in vivo, C57BL/6J mice; settings: 3% (w/v) DSS from day 3; oral 100 μl/10 g bw; measured daily from day 0
Experimental: Since ulcerative colitis-induced animals lose weight, a symptom-alleviating effect was checked by measuring changes in body weight.
For the respective normal group, control group, positive control group, and BA experimental group prepared in Example 1, the body weight was measured using a precision balance at the start of the experiment (day 0), and changes in body weight were measured at daily intervals for comparison.

[6] = system: colon tissues of ulcerative colitis-induced mice; experiment: Histological analysis (H&E staining) of colon tissues of ulcerative colitis-induced mice; format: in vivo, C57BL/6J mice; settings: 4 μm paraffin sections, colon extracted on day 11
Experimental: as §1
The colon tissues stored frozen in Example 3 were fixed in 4% paraformaldehyde for 48 hours and then washed with PBS. The fixed tissues were embedded in paraffin, cut into 4 μm thickness, and stained with hematoxylin and eosin. Then, the stained tissues were observed under a microscope.

[7] = mouse, in vivo, po
Text: as §2, §3, §4, §5

food intake compared with the normal group [7]	Structure (SMILES)	food intake compared with the normal group [1]	MPO activity as compared with the normal group (in words) [2]	Disease activity index (DAI) = (fecal consistency + fecal color)/2 [3]	colon length compared with the normal group (in words) [4]	decrease in body weight [5]	histological changes in colon tissue: structure of the mucosa [6]	increase in MPO activity as compared with the normal group [2]	colon length shorter than that of the normal group [4]	histological changes in colon tissue: goblet cells and surface epithelium [6]	histological changes in colon tissue: immune cell penetration [6]
	CC(C)=CCc1cc(C(=O)/C=C/c2ccc(O)c(O)c2)c(O)cc1O [broussochalcone A]	an increase in food intake as compared with the normal group	did not exhibit significantly different MPO activity as compared with the normal group	lower DAI than the control group	colon length similar to that of the normal group	about 5%	the structure of the mucosa was maintained				
a decrease in food intake	O=C(O)c1cc(/N=N/c2ccc(S(=O)(=O)Nc3ccccn3)cc2)ccc1O [sulfasalazine, Sulfasalazine]			high DAI		about 20%	the structure of the mucosa was partially maintained	about 1.5 fold	about 2.8 cm	had lost goblet cells and surface epithelium	many immune cells had penetrated the colon tissues
